What was measured:
[1] = Estimated human brain concentrations and comparison with IC50 values; settings: recreational human blood/serum/plasma concentration multiplied with BPF
Excerpt: To correlate reported effect concentrations to expected concentrations in the human brain during recreational use a brain partitioning factor (BPF; […]) was applied, as actual human brain concentrations following recreational drug use are unknown. Expected concentrations in the human brain were estimated by multiplying recreational human blood/serum/plasma concentrations with the BPF. Human recreational blood, serum, or plasma levels were obtained from literature (driving under the influence or accidental non-fatal intoxications). The BPF was determined for each drug by dividing the brain concentration by the blood/serum/plasma concentration found in human post mortem reports, or animal studies (rat/mice) when human data were insufficient.
To identify the relevance of effects and potentially harmful drugs, effect concentrations (IC50 values) were related to the estimated human brain concentration during recreational use [(brain), Table 2]. By comparing these concentrations, the most relevant neurotoxic mechanisms of cathinones can be identified. […] Only 4-MEC and MDPV inhibited neuronal activity during acute exposure at concentrations within (MDPV) or close to (4-MEC) the estimated brain concentration.

hDAT = target: T1, hDAT (Homo sapiens, UniProt Q01959); experiment: Monoamine uptake assay (fluorescent substrate), hDAT; format: cell-based
T1 construct: expressed in transfected cells
T1 sequence (Q01959 whole entry): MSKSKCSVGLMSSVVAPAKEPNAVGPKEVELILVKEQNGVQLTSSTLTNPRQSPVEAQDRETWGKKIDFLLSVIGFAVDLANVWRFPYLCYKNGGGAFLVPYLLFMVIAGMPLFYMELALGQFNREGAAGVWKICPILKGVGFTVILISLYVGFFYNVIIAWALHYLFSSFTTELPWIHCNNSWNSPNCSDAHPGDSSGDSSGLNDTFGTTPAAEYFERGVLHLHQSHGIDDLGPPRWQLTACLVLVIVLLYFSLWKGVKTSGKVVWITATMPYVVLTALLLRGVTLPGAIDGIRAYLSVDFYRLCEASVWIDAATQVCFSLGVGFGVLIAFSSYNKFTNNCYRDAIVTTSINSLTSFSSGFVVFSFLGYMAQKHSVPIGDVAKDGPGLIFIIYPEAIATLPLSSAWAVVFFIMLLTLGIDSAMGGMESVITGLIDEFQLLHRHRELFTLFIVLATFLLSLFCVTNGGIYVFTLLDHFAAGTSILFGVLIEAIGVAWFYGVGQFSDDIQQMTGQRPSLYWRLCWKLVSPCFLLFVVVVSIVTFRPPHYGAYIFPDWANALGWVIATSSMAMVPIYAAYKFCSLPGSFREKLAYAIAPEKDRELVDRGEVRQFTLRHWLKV
Experimental: Human embryonic kidney (HEK) 293 cells stably expressing human DAT, NET, or SERT (kindly provided by Dr. Hoener from F. Hoffmann-La Roche Ltd., Basel, Switzerland) were cultured as described in [Zwartsen et al. (2017)].
Uptake activity of hNET, hDAT, and hSERT was measured using the Neurotransmitter Transporter Uptake Assay Kit from MDS Analytical Technologies (Sunnyvale, CA, United States) as described in detail previously ([Zwartsen et al., 2017]). The kit contained a mixture consisting of a fluorescent substrate, which resembles the biogenic amine neurotransmitters, and a masking dye that extinguishes extracellular fluorescence. Uptake of the fluorescent substrate, a measure of neurotransmitter transporter function, increases intracellular fluorescence, while extracellular fluorescence is blocked by the masking dye ([Jorgensen et al., 2008]). The mixture was dissolved in Hank’s Balanced Salt Solution (1×) (HBSS) with 20 mM HEPES, and kept up to 1 week at −20°C.
On day 0, HEK 293 cells were seeded (60,000 cells/well) in clear-bottom black-walled 96-well plates coated with poly-L-lysine (PLL, 50 mg/L). On day 1, cells were pre-incubated with the fluorescent substrate mixture (95 μL/well, comprising of the fluorescent substrate and the extracellular masking dye, dissolved in HBSS) for 12 min (t = −12 to t = 0). During incubation, intracellular fluorescence was measured every 3 min. […] Stock solutions and dilutions were freshly prepared in HBSS (1×) at the day of usage. Effects of 3-MMC, 4-MMC, 4-MEC, methylone, pentedrone, MDPV, 3-MMCinternet, and 4-MECinternet were measured at final concentrations of 0.03–300/1000 μM. Fluorescence was measured with a microplate reader (Tecan Infinite M200 microplate; Tecan Trading Männedorf, Switzerland) at 37°C at 430/515 nm excitation/emission wavelength. For more experimental detail see [Zwartsen et al. (2017)].
Data from the monoamine uptake assay were analyzed as described by [Zwartsen et al. (2017)], with minor modifications. Data for α-PVP were reanalyzed from [Zwartsen et al. (2017)]. In short, the fluorescence of each well was background corrected and uptake was determined per well by calculating the change in fluorescence (ΔFU) at 12 min after drug exposure (t = 12) compared to the fluorescence at the start of exposure (t = 0), as a percentage of the fluorescence at the start of exposure (%ΔFU = ((FUt = 12−FUt = 0)/FUt = 0)∗100%; see [Zwartsen et al., 2017]). Plate-matched control values for each compound (e.g., methylone) above or below two times the standard deviation of the average normalized control value were considered outliers and were removed from analysis (4.8%). Thereafter, uptake in drug-exposed wells was expressed as a percentage of control wells on the same plate and all uptake values were scaled between 0 and 100%. Outliers (>mean ± 2×SD) in exposed groups were removed (2.7%) and uptake (% compared to control) was expressed as mean ± SEM of nwells from Nplates.
Concentration–response curves were made for transporter, MEA, and cell viability assays. To calculate IC50 values, a four-parameter logistic curve with a variable slope was used (Y = Bottom + (Top−Bottom)/(1 + 10∧((LogIC50 − X) ^∗ HillSlo pe))) (GraphPad Prism, version 7.04). When applicable, significance between concentrations and controls (for MEA) and different IC50 values [between different transporters (DAT/NET/SERT), MEA parameters (MSR/MBR/MNBR), exposure settings (acute/prolonged/recovery), and drug grade (pharmaceutical/internet)] were determined using unpaired t-tests (two values) or one-way ANOVA’s followed by a post hoc Dunnet’s test (>2 values). All statistical tests were performed using GraphPad Prism. For recovery of neuronal activity, IC50 values and 95% confidence intervals could not always be determined and are reported as higher than the highest concentration tested (e.g., >1000 μM). […]

Compound	Estimated human (brain) concentration [1]	IC50 (hDAT)
CCNC(C)C(=O)c1ccc(C)cc1 (stereo not shown) [4-MEC, 2-(ethylamino)-1-(4-methylphenyl) propan-1-one]	0.2 to 29 µM	1600 nM
CNC(C)C(=O)c1cccc(C)c1 (stereo not shown) [3-MMC, 2-(methylamino)-1-(3-methylphenyl) propan-1-one]	0.005 to 9.0 µM	2500 nM
CCCC(C(=O)c1ccc2c(c1)OCO2)N1CCCC1 (stereo not shown) [MDPV, 1-(1,3-benzodioxol-5-yl)-2-pyrro lidin-1-ylpentan-1-one]	0.02 to 30 µM	70 nM
CCCC(NC)C(=O)c1ccccc1 (stereo not shown) [Pentedrone, 2-(methylamino)-1-phenyl pentan-1-one]	0.06 to 3.0 µM	400 nM
CNC(C)C(=O)c1ccc(C)cc1 (stereo not shown) [4-MMC, 2-(methylamino)-1-(4-methylphenyl) propan-1-one]	0.04 to 37 µM	1400 nM
